Square brackets hold non-standard residues; d marks the D form. Peptide text beside a SMILES is read from it. * marks the point of attachment. ξ: configuration not given here. dIle(3ξ) = CCC(C)[C@@H](N)C(=O)O; Ile(3ξ) = CCC(C)[C@H](N)C(=O)O; Boc = CC(C)(C)OC(=O)*; OtBu = CC(C)(C)O*
System: tobacco bacterial rot (Pectobacterium carotovorum)
Assay: Suppression of tobacco bacterial rot
Format: in vivo, Pectobacterium carotovorum SCC1
Method: A tobacco or cucumber was sown in a plastic pot with a diameter of 10 cm×13 cm, and then, 12 pots were added in a yellow box. After seeding, 100 μL was inoculated to the cotyledons of cucumber or tobacco, in which first leaf was started to come out. The test compounds were dissolved in 20% methanol to make a stock solution, and then, the stock solution was diluted to the concentrations of 1, 10, and 100 ppm.
After 7 days, the pathogen of a plant bacterial rot (Pectobacterium carotovorum SCC1) was cultured in a TSA medium for 27 hours; and then, the cultured pathogen was sprayed in a concentration of 10^8 cfu/mL to the plant leaves, and cultured at 30° C. for 3 days. The plant anthracnose germ (Colletotrichum orbiculare) was cultured in a GBA (Green bean agar) medium to induce spores for about 2 to 3 weeks. The germ was sprayed in a concentration of 10^5 cell/mL and then cultured at 26° C. for 1 day. When fourth or fifth leaf came out, 200 μL of each of the test compounds was inoculated to third leaf. After 7 days, the pathogen of the plant bacterial rot was sprayed to the plant leaves in the concentration of 10^8 cfu/mL, and then cultured at 30° C. for 3 days.
The investigation was performed with naked eyes, and the lesion relative areas were investigated until 0 to 100% according to the shortness degrees of the bacterial rot. The anthracnose was investigated by counting the number of lesions occurred on the leaves.

| Compound | Lesion outbreak rate (Table 4, tobacco, 1 ppm) | Lesion outbreak rate (Table 4, tobacco, 10 ppm) | Lesion outbreak rate (Table 4, tobacco, 100 ppm) | Lesion outbreak rate (Table 5, tobacco, 10 ppm) | Lesion outbreak rate (Table 5, tobacco, 100 ppm) | further results |
| --- | --- | --- | --- | --- | --- | --- |
| COC(=O)[C@@H]1CCCN1C(=O)[C@H](CC(N)=O)NC(=O)OC(C)(C)C [Compound 26] (Boc-Asn-Pro-OMe) | 63% | 23% | 60% |  |  |  |
| COC(=O)[C@@H]1CCCN1C(=O)[C@@H]1CCCN1C(=O)OC(C)(C)C [Compound 27] (Boc-Pro-Pro-OMe) | 33% | 30% | 20% |  |  |  |
| COC(=O)[C@@H]1CCCN1C(=O)[C@H](CCCCNC(=O)OC(C)(C)C)NC(=O)OC(C)(C)C [Compound 28] (Boc-Lys(Boc)-Pro-OMe) | 20% | 80% | 13% |  |  |  |
| COC(=O)[C@@H]1CCCN1C(=O)[C@H](Cc1c[nH]cn1)NC(=O)OC(C)(C)C [Compound 29] | 63% | 43% | 63% |  |  |  |
| COC(=O)[C@@H]1CCCN1C(=O)[C@H](CCC(=O)OC(C)(C)C)NC(=O)OC(C)(C)C [Compound 30] (Boc-Glu(OtBu)-Pro-OMe) | 23% | 36% | 13% |  |  |  |
| COC(=O)[C@@H]1CCCN1C(=O)[C@H](CCCNC(=NC(=O)OCc1ccccc1)NC(=O)OCc1ccccc1)NC(=O)OC(C)(C)C [Compound 31] | 63% | 56% | 73% |  |  |  |
| COC(=O)[C@@H]1CCCN1C(=O)[C@H](Cc1ccc(O)cc1)NC(=O)OC(C)(C)C [Compound 32] (Boc-Tyr-Pro-OMe) | 78% | 30% | 60% |  |  |  |
| COC(=O)[C@H]1CCCN1C(=O)[C@@H]1CCCN1C(=O)OC(C)(C)C [Compound 33] (Boc-Pro-[dP]-OMe) | 80% | 38% | 18% |  |  |  |
| CCC(C)[C@H](NC(=O)OC(C)(C)C)C(=O)N1CCC[C@@H]1C(=O)OC (stereo partly drawn) [Compound 34] (Boc-[Ile(3ξ)]-[dP]-OMe) | 35% | 41% | 24% |  |  |  |
| COC(=O)[C@H]1CCCN1C(=O)[C@H](Cc1ccc(O)cc1)NC(=O)OC(C)(C)C [Compound 35] (Boc-Tyr-[dP]-OMe) | 18% | 43% | 50% |  |  |  |
| COC(=O)[C@H]1CCCN1C(=O)[C@H](CC(C)C)NC(=O)OC(C)(C)C [Compound 36] (Boc-Leu-[dP]-OMe) | 45% | 41% | 38% |  |  |  |
| COC(=O)[C@H]1CCCN1C(=O)[C@H](CC(=O)OC(C)(C)C)NC(=O)OC(C)(C)C [Compound 37] (Boc-Asp(OtBu)-[dP]-OMe) | 5% | 5% | 43% |  |  |  |
| COC(=O)[C@H]1CCCN1C(=O)CNC(=O)OC(C)(C)C [Compound 38] (Boc-Gly-[dP]-OMe) | 13% | 80% | 60% |  |  |  |
| COC(=O)[C@H]1CCCN1C(=O)[C@H](CO)NC(=O)OC(C)(C)C [Compound 39] (Boc-Ser-[dP]-OMe) | 35% | 10% | 43% |  |  |  |
| COC(=O)[C@H]1CCCN1C(=O)[C@H](CCSC)NC(=O)OC(C)(C)C [Compound 40] (Boc-Met-[dP]-OMe) | 8% | 45% | 43% |  |  |  |
| COC(=O)[C@H]1CCCN1C(=O)[C@H](CC(N)=O)NC(=O)OC(C)(C)C [Compound 41] (Boc-Asn-[dP]-OMe) | 30% | 50% | 18% |  |  |  |
| COC(=O)[C@H]1CCCN1C(=O)[C@H](Cc1ccccc1)NC(=O)OC(C)(C)C [Compound 42] (Boc-Phe-[dP]-OMe) | 43% | 60% | 45% |  |  |  |
| COC(=O)[C@H]1CCCN1C(=O)[C@H](Cc1c[nH]c2ccccc12)NC(=O)OC(C)(C)C [Compound 43] (Boc-Trp-[dP]-OMe) | 35% | 45% | 31% |  |  |  |
| COC(=O)[C@H]1CCCN1C(=O)[C@H](C)NC(=O)OC(C)(C)C [Compound 44] (Boc-Ala-[dP]-OMe) | 46% | 37% | 33% |  |  |  |
| COC(=O)[C@H]1CCCN1C(=O)[C@H](CCC(N)=O)NC(=O)OC(C)(C)C [Compound 45] (Boc-Gln-[dP]-OMe) | 83% | 33% | 55% |  |  |  |
| COC(=O)[C@H]1CCCN1C(=O)[C@H](Cc1c[nH]cn1)NC(=O)OC(C)(C)C [Compound 46] | 56% | 70% | 48% |  |  |  |

| Compound | Lesion outbreak rate (Table 4, tobacco, 1 ppm) | Lesion outbreak rate (Table 4, tobacco, 10 ppm) | Lesion outbreak rate (Table 4, tobacco, 100 ppm) | Lesion outbreak rate (Table 5, tobacco, 10 ppm) | Lesion outbreak rate (Table 5, tobacco, 100 ppm) | further results |
| --- | --- | --- | --- | --- | --- | --- |
| COC(=O)C1CCCN1C(=O)C(NC(=O)OC(C)(C)C)C(C)O (stereo not drawn) [Compound 47] (Boc-Thr-Pro-OMe; configuration not given here) |  |  |  | 0% | 50% |  |
| COC(=O)[C@H]1CCCN1C(=O)[C@H](CCCCNC(=O)OC(C)(C)C)NC(=O)OC(C)(C)C [Compound 48] (Boc-Lys(Boc)-[dP]-OMe) |  |  |  | 25% | 50% |  |
| COC(=O)[C@H]1CCCN1C(=O)[C@@H](NC(=O)OC(C)(C)C)C(C)C [Compound 49] (Boc-Val-[dP]-OMe) |  |  |  | 23% | 0% |  |
| COC(=O)[C@H]1CCCN1C(=O)[C@H](CCC(=O)OC(C)(C)C)NC(=O)OC(C)(C)C [Compound 50] (Boc-Glu(OtBu)-[dP]-OMe) |  |  |  | 35% | 60% |  |
| COC(=O)[C@@H]1CCCN1C(=O)[C@@H](C)NC(=O)OC(C)(C)C [Compound 51] (Boc-[dA]-Pro-OMe) |  |  |  | 0% | 68% |  |
| COC(=O)[C@@H]1CCCN1C(=O)[C@@H](Cc1c[nH]c2ccccc12)NC(=O)OC(C)(C)C [Compound 52] (Boc-[dW]-Pro-OMe) |  |  |  | 0% | 25% |  |
| COC(=O)[C@@H]1CCCN1C(=O)[C@@H](Cc1ccc(O)cc1)NC(=O)OC(C)(C)C [Compound 53] (Boc-[dY]-Pro-OMe) |  |  |  | 45% | 50% |  |
| COC(=O)[C@@H]1CCCN1C(=O)[C@@H](CCC(N)=O)NC(=O)OC(C)(C)C [Compound 54] (Boc-[dQ]-Pro-OMe) |  |  |  | 36% | 60% |  |
| COC(=O)[C@@H]1CCCN1C(=O)[C@H]1CCCN1C(=O)OC(C)(C)C [Compound 55] (Boc-[dP]-Pro-OMe) |  |  |  | 48% | 36% |  |
| COC(=O)[C@@H]1CCCN1C(=O)[C@H](NC(=O)OC(C)(C)C)C(C)C [Compound 56] (Boc-[dV]-Pro-OMe) |  |  |  | 13% | 40% |  |
| COC(=O)[C@@H]1CCCN1C(=O)[C@@H](CC(C)C)NC(=O)OC(C)(C)C [Compound 57] (Boc-[dL]-Pro-OMe) |  |  |  | 25% | 25% |  |
| CCC(C)[C@@H](NC(=O)OC(C)(C)C)C(=O)N1CCC[C@H]1C(=O)OC (stereo partly drawn) [Compound 58] (Boc-[dIle(3ξ)]-Pro-OMe) |  |  |  | 28% | 13% |  |
| COC(=O)[C@@H]1CCCN1C(=O)[C@@H](Cc1ccccc1)NC(=O)OC(C)(C)C [Compound 59] (Boc-[dF]-Pro-OMe) |  |  |  | 38% | 25% |  |
| COC(=O)[C@@H]1CCCN1C(=O)[C@@H](CO)NC(=O)OC(C)(C)C [Compound 60] (Boc-[dS]-Pro-OMe) |  |  |  | 18% | 56% |  |
| COC(=O)[C@@H]1CCCN1C(=O)[C@@H](CCSC)NC(=O)OC(C)(C)C [Compound 63] (Boc-[dM]-Pro-OMe) |  |  |  | 56% | 52% |  |
| COC(=O)[C@H]1CCCN1C(=O)[C@@H](CO)NC(=O)OC(C)(C)C [Compound 64] (Boc-[dS]-[dP]-OMe) |  |  |  |  |  | Lesion outbreak rate (Table 6, tobacco, 1 ppm): 100%; Lesion outbreak rate (Table 6, tobacco, 10 ppm): 23%; Lesion outbreak rate (Table 6, tobacco, 100 ppm): 100% |
| COC(=O)[C@H]1CCCN1C(=O)[C@@H](Cc1ccccc1)NC(=O)OC(C)(C)C [Compound 65] (Boc-[dF]-[dP]-OMe) |  |  |  |  |  | Lesion outbreak rate (Table 6, tobacco, 1 ppm): 80%; Lesion outbreak rate (Table 6, tobacco, 10 ppm): 57%; Lesion outbreak rate (Table 6, tobacco, 100 ppm): 55% |
| COC(=O)[C@H]1CCCN1C(=O)[C@@H](CCSC)NC(=O)OC(C)(C)C [Compound 68] (Boc-[dM]-[dP]-OMe) |  |  |  |  |  | Lesion outbreak rate (Table 6, tobacco, 1 ppm): 78%; Lesion outbreak rate (Table 6, tobacco, 10 ppm): 53%; Lesion outbreak rate (Table 6, tobacco, 100 ppm): 25% |
| COC(=O)[C@H]1CCCN1C(=O)[C@@H](C)NC(=O)OC(C)(C)C [Compound 70] (Boc-[dA]-[dP]-OMe) |  |  |  |  |  | Lesion outbreak rate (Table 6, tobacco, 1 ppm): 80%; Lesion outbreak rate (Table 6, tobacco, 10 ppm): 72%; Lesion outbreak rate (Table 6, tobacco, 100 ppm): 77% |
| COC(=O)[C@H]1CCCN1C(=O)[C@@H](Cc1ccc(O)cc1)NC(=O)OC(C)(C)C [Compound 71] (Boc-[dY]-[dP]-OMe) |  |  |  |  |  | Lesion outbreak rate (Table 6, tobacco, 1 ppm): 60%; Lesion outbreak rate (Table 6, tobacco, 10 ppm): 65%; Lesion outbreak rate (Table 6, tobacco, 100 ppm): 40% |

Reference: patent US20150119251A1, “AGRICULTURAL PLANT-PROTECTING AGENTS CONTAINING DIPEPTIDE DERIVATIVE AS ACTIVE INGREDIENT” (REPUBLIC OF KOREA (RURAL DEVELOPMENT ADMINISTRATION), priority 2012, published 2015)
